Minimal effective concentration data for 23 compounds are collected here from patent US10570129B2 (Zoetis Services LLC, priority 2015, dated 2020).

One test concerns Haemonchus contortus L3. Kind of test: microbe, parasite or virus in culture. The format is cell-based. The settings on record: Haemonchus contortus, 96 h, read-out: HcL3 Minimal Effective Concentration (MEC).
Another test deals with D. immitis microfilariae. Kind of test: Dirofilaria immitis, microfilariae (DiMF) in vitro motility assay. To be noted: Dirofilaria immitis, 72 h, read-out: DiMF minimally effective dose (MEC). In kind it is cell-based.

With `N#Cc1ccc(/C=C/CN2CCc3c(c4cc(C(F)(F)F)ccc4n3C(=O)NCc3ccnc(F)c3)C2)cc1F` [Example 416, (E)-2-(3-(4-cyano-3-fluorophenyl)allyl)-N-((2-fluoropyridin-4-yl)methyl)-8-(trifluoromethyl)-1,2,3,4-tetrahydro-5H-pyrido[4,3-b]indole-5-carboxamide], the minimal effective concentration with Haemonchus contortus L3 came out at 1.8 µM; in the test on D. immitis microfilariae it was 57.4 µM.

`O=C(NCc1ccnc(Cl)c1)n1c2c(c3cc(F)c(Cl)cc31)CN(C/C=C/c1ccc(Cl)c(F)c1)CC2` [Example 297, (E)-7-chloro-2-(3-(4-chloro-3-fluorophenyl)allyl)-N-((2-chloropyridin-4-yl)methyl)-8-fluoro-1,2,3,4-tetrahydro-5H-pyrido[4,3-b]indole-5-carboxamide]: the minimal effective concentration in the test on Haemonchus contortus L3 is 0.3 µM; with D. immitis microfilariae, above 100 µM. Taken in the same sequence, the figures for `O=C(NCc1ccnc(Cl)c1)n1c2c(c3cc(F)ccc31)CN(C/C=C/c1ccc(Cl)cc1)CC2` [Example 169, (E)-2-(3-(4-chlorophenyl)allyl)-N-((2-chloropyridin-4-yl)methyl)-8-fluoro-1,2,3,4-tetrahydro-5H-pyrido[4,3-b]indole-5-carboxamide] were 0.1 µM and 18.2 µM.

Turning to `COc1ccc(/C=C/CN2CCc3c(c4ccc(Cl)cc4n3C(=O)NCc3ccnc(Cl)c3)C2)cc1` [Example 219, (E)-7-chloro-N-((2-chloropyridin-4-yl)methyl)-2-(3-(4-methoxyphenyl)allyl)-1,2,3,4-tetrahydro-5H-pyrido[4,3-b]indole-5-carboxamide], the minimal effective concentration with Haemonchus contortus L3 was determined as 0.5 µM; in the test with D. immitis microfilariae it was 3.3 µM. As to `O=C(NCc1ccnc(Cl)c1)n1c2c(c3ccc(Cl)cc31)CN(C/C=C/c1ccc(OC(F)(F)F)cc1)CC2` [Example 221, (E)-7-chloro-N-((2-chloropyridin-4-yl)methyl)-2-(3-(4-(trifluoromethoxy)-phenyl)allyl)-1,2,3,4-tetrahydro-5H-pyrido[4,3-b]indole-5-carboxamide], the minimal effective concentration with Haemonchus contortus L3 was above 100 µM; with D. immitis microfilariae it was 3.3 µM. As to `N#Cc1ccc2c(c1)c1c(n2C(=O)NCc2ccnc(F)c2)CCN(C/C=C/c2ccc(F)c(F)c2F)C1` [Example 110, (E)-8-cyano-N-((2-fluoropyridin-4-yl)methyl)-2-(3-(2,3,4-trifluorophenyl)allyl)-1,2,3,4-tetrahydro-5H-pyrido[4,3-b]indole-5-carboxamide], the minimal effective concentration is 0.3 µM in the test on Haemonchus contortus L3 and above 100 µM with D. immitis microfilariae. In the case of `N#Cc1ccc2c(c1)c1c(n2C(=O)NCc2ccnc(Cl)c2)CCN(C/C=C/c2ccc(Cl)cc2)C1` [Example 92, (E)-2-(3-(4-chlorophenyl)allyl)-N-((2-chloropyridin-4-yl)methyl)-8-cyano-1,2,3,4-tetrahydro-5H-pyrido[4,3-b]indole-5-carboxamide], the figures for the minimal effective concentration in the test on Haemonchus contortus L3 and in the test with D. immitis microfilariae were 0.3 µM and 3.3 µM, respectively. In the same order, the values of `O=C(NCc1ccnc(Cl)c1)n1c2c(c3cc(C(F)(F)F)ccc31)CN(C/C=C/c1ccc(Cl)c(F)c1)CC2` [Example 410, (E)-2-(3-(4-chloro-3-fluorophenyl)allyl)-N-((2-chloropyridin-4-yl)methyl)-8-(trifluoromethyl)-1,2,3,4-tetrahydro-5H-pyrido[4,3-b]indole-5-carboxamide] are 1.8 µM and 10 µM. As to `CCOc1cc2c(cc1Br)c1c(n2C(=O)NCc2ccnc(Cl)c2)CCN(C/C=C/c2ccc(Cl)cc2)C1` [Example 468, (E)-8-bromo-2-(3-(4-chlorophenyl)allyl)-N-((2-chloropyridin-4-yl)methyl)-7-ethoxy-1,2,3,4-tetrahydro-5H-pyrido[4,3-b]indole-5-carboxamide], the minimal effective concentration in the test with Haemonchus contortus L3 is 0.2 µM; with D. immitis microfilariae, 1.8 µM.

Take `O=C(NCc1ccnc(Cl)c1)n1c2c(c3ccc(Cl)cc31)CN(C/C=C/c1ccc(Cl)c(F)c1)CC2` [Example 205, (E)-7-chloro-2-(3-(4-chloro-3-fluorophenyl)allyl)-N-((2-chloropyridin-4-yl)methyl)-1,2,3,4-tetrahydro-5H-pyrido[4,3-b]indole-5-carboxamide]: the minimal effective concentration in the test with Haemonchus contortus L3 was 1 µM; in the test on D. immitis microfilariae, 18.2 µM. As for `O=C(NCc1ccnc(F)c1)n1c2c(c3cc(OC(F)(F)F)ccc31)CN(C/C=C/c1ccc(F)c(Cl)c1)CC2` [Example 404, (E)-2-(3-(3-chloro-4-fluorophenyl)allyl)-N-((2-fluoropyridin-4-yl)methyl)-8-(trifluoromethoxy)-1,2,3,4-tetrahydro-5H-pyrido[4,3-b]indole-5-carboxamide], the minimal effective concentration in the test on Haemonchus contortus L3 is 1 µM; in the test on D. immitis microfilariae, 18.2 µM. Turning to `COc1cc2c3c(n(C(=O)NCc4ccnc(Cl)c4)c2cc1C#N)CCN(C/C=C/c1ccc(Cl)cc1)C3` [Example 493, (E)-2-(3-(4-chlorophenyl)allyl)-N-((2-chloropyridin-4-yl)methyl)-7-cyano-8-methoxy-1,2,3,4-tetrahydro-5H-pyrido[4,3-b]indole-5-carboxamide], the minimal effective concentration in the test on Haemonchus contortus L3 stood at 1 µM; in the test with D. immitis microfilariae it was 5.7 µM.

`O=C(NCc1ccnc(Cl)c1)n1c2c(c3ccc(OC(F)(F)F)cc31)CN(C/C=C/c1c(F)cc(Cl)cc1F)CC2` [Example 339, (E)-2-(3-(4-chloro-2,6-difluorophenyl)allyl)-N-((2-chloropyridin-4-yl)-methyl)-7-(trifluoromethoxy)-1,2,3,4-tetrahydro-5H-pyrido[4,3-b]indole-5-carboxamide]: the minimal effective concentration in the test with Haemonchus contortus L3 and with D. immitis microfilariae was 0.5 µM each time. For `O=C(NCc1ccnc(Cl)c1)n1c2c(c3cc(OC(F)(F)F)ccc31)CN(C/C=C/c1ccc(F)c(Cl)c1)CC2` [Example 388, (E)-2-(3-(3-chloro-4-fluorophenyl)allyl)-N-((2-chloropyridin-4-yl)methyl)-8-(trifluoromethoxy)-1,2,3,4-tetrahydro-5H-pyrido[4,3-b]indole-5-carboxamide], the minimal effective concentration in the test with Haemonchus contortus L3 is 1.8 µM; in the test with D. immitis microfilariae, above 100 µM.

In the case of `O=C(NCc1ccnc(Cl)c1)n1c2c(c3cc(C(F)(F)F)ccc31)CN(C/C=C/c1ccc(F)c(F)c1)CC2` [Example 414, (E)-N-((2-chloropyridin-4-yl)methyl)-2-(3-(3,4-difluorophenyl)allyl)-8-(trifluoromethyl)-1,2,3,4-tetrahydro-5H-pyrido[4,3-b]indole-5-carboxamide], the minimal effective concentration in the test on Haemonchus contortus L3 stood at 1 µM; with D. immitis microfilariae, 10 µM.

As to `O=C(NCc1ccnc(Cl)c1)n1c2c(c3cc(F)c(Cl)cc31)CN(C/C=C/c1ccc(F)c(F)c1)CC2` [Example 300, (E)-7-chloro-N-((2-chloropyridin-4-yl)methyl)-2-(3-(3,4-difluorophenyl)-allyl)-8-fluoro-1,2,3,4-tetrahydro-5H-pyrido[4,3-b]indole-5-carboxamide], the results for the minimal effective concentration with Haemonchus contortus L3 and with D. immitis microfilariae were 0.5 µM and 10 µM, respectively. Consider `N#Cc1ccc2c(c1)c1c(n2C(=O)NCc2ccnc(Cl)c2)CCN(C/C=C/c2c(F)c(F)c(F)c(F)c2F)C1` [Example 83, (E)-N-((2-chloropyridin-4-yl)methyl)-8-cyano-2-(3-(perfluorophenyl)allyl)-1,2,3,4-tetrahydro-5H-pyrido[4,3-b]indole-5-carboxamide], for which the minimal effective concentration with Haemonchus contortus L3 is 0.1 µM; in the test with D. immitis microfilariae it was above 100 µM. On to `O=C(NCc1ccnc(Cl)c1)n1c2c(c3cc(Cl)c(Cl)cc31)CN(C/C=C/c1ccc(F)c(F)c1)CC2` [Example 278, (E)-7,8-dichloro-N-((2-chloropyridin-4-yl)methyl)-2-(3-(3,4-difluorophenyl)allyl)-1,2,3,4-tetrahydro-5H-pyrido[4,3-b]indole-5-carboxamide], for which the values for the minimal effective concentration in the test with Haemonchus contortus L3 and with D. immitis microfilariae were 1.8 µM and 18.2 µM, respectively.

Turning to `N#Cc1ccc(/C=C/CN2CCc3c(c4cc(C(F)(F)F)ccc4n3C(=O)NCc3ccnc(O)c3)C2)cc1` [Example 454, (E)-2-(3-(4-cyanophenyl)allyl)-N-((2-hydroxypyridin-4-yl)methyl)-8-(trifluoromethyl)-1,2,3,4-tetrahydro-5H-pyrido[4,3-b]indole-5-carboxamide], the minimal effective concentration in the test with Haemonchus contortus L3 and with D. immitis microfilariae was above 100 µM in each case.

As for `COc1cc(CNC(=O)n2c3c(c4cc(C#N)ccc42)CN(C/C=C/c2ccc(F)cc2F)CC3)ccn1` [Example 67, (E)-8-cyano-2-(3-(2,4-difluorophenyl)allyl)-N-((2-methoxypyridin-4-yl)methyl)-1,2,3,4-tetrahydro-5H-pyrido[4,3-b]indole-5-carboxamide], the minimal effective concentration in the test with D. immitis microfilariae amounted to 0.01 µM. For the compound `COc1cc(CNC(=O)n2c3c(c4cc(C#N)ccc42)CN(C/C=C/c2ccc(Cl)cc2Cl)CC3)ccn1` [Example 65, (E)-8-cyano-2-(3-(2,4-dichlorophenyl)allyl)-N-((2-methoxypyridin-4-yl)methyl)-1,2,3,4-tetrahydro-5H-pyrido[4,3-b]indole-5-carboxamide], the minimal effective concentration in the test on D. immitis microfilariae was above 100 µM.

As for `COc1cc(CNC(=O)n2c3c(c4cc(C#N)ccc42)CN(C/C=C/c2ccc(Br)cc2F)CC3)ccn1` [Example 66, (E)-2-(3-(4-bromo-2-fluorophenyl)allyl)-8-cyano-N-((2-methoxypyridin-4-yl)methyl)-1,2,3,4-tetrahydro-5H-pyrido[4,3-b]indole-5-carboxamide], the minimal effective concentration with D. immitis microfilariae is above 100 µM. In the case of `COc1cc(CNC(=O)n2c3c(c4cc(C#N)ccc42)CN(C/C=C/c2cc(F)c(F)c(F)c2)CC3)ccn1` [Example 63, (E)-8-cyano-N-((2-methoxypyridin-4-yl)methyl)-2-(3-(3,4,5-trifluorophenyl)allyl)-1,2,3,4-tetrahydro-5H-pyrido[4,3-b]indole-5-carboxamide], in the test on D. immitis microfilariae, the minimal effective concentration was found to be 0.3 µM.
